In ChEMBL document CHEMBL1157533 (J Med Chem, 2008):

What was measured:
[1] = target: Beta-1 adrenergic receptor (Homo sapiens, UniProt P08588); assay: Agonist activity at human recombinant beta-1 adrenergic receptor expressed in CHO cells assessed as cAMP accumulation by enzyme immuno assay; assay type: functional, cell-based
[2] = target: Beta-3 adrenergic receptor (Homo sapiens, UniProt P13945); assay: Agonist activity at human recombinant beta3 adrenergic receptor expressed in CHO cells assessed as cAMP accumulation by enzyme immuno assay; assay type: functional, cell-based
[3] = target: Beta-2 adrenergic receptor (Homo sapiens, UniProt P07550); assay: Agonist activity at human recombinant beta2 adrenergic receptor expressed in CHO cells assessed as cAMP accumulation by enzyme immuno assay; assay type: functional, cell-based
[4] = AUC (0 to 2 hrs) in Beagle dog at 0.1 mg/kg, po by cassette assay; assay type: ADME, organism-based, Canis lupus familiaris; set-up: time < 2 hr, dose 0.1 mg/kg, route oral; conditions: plasma
[5] = Terminal half life in Beagle dog at 0.1 mg/kg, iv by cassette assay; assay type: ADME, organism-based, Canis lupus familiaris; set-up: dose 0.1 mg/kg, route intravenous; conditions: in vivo, read-out: beta t1/2 (converted)
[6] = Volume of distribution at steady state in Beagle dog at 0.1 mg/kg, iv by cassette assay; assay type: ADME, organism-based, Canis lupus familiaris; set-up: dose 0.1 mg/kg, route intravenous; conditions: in vivo, read-out: Vdss
[7] = AUC (0 to 24 hrs) in Beagle dog at 0.1 mg/kg, iv by cassette assay; assay type: ADME, organism-based, Canis lupus familiaris; set-up: time < 24 hr, dose 0.1 mg/kg, route intravenous; conditions: plasma
[8] = Total clearance in Beagle dog at 0.1 mg/kg, iv by cassette assay; assay type: ADME, organism-based, Canis lupus familiaris; set-up: dose 0.1 mg/kg, route intravenous; conditions: in vivo
[9] = Bioavailability in Beagle dog at 0.1 mg/kg, po by cassette assay; assay type: ADME, organism-based, Canis lupus familiaris; conditions: in vivo
[10] = Metabolic stability assessed as intrinsic clearance in dog liver microsome in presence of NADPH-generating system; assay type: ADME, Canis lupus familiaris; conditions: liver microsomes
[11] = Metabolic stability assessed as intrinsic clearance in rat liver microsome in presence of NADPH-generating system; assay type: ADME; conditions: liver microsomes
[12] = Metabolic stability assessed as intrinsic clearance in monkey liver microsome in presence of NADPH-generating system; assay type: ADME, Macaca mulatta; conditions: rhesus monkey, liver microsomes
[13] = Metabolic stability assessed as intrinsic clearance in human liver microsome in presence of NADPH-generating system; assay type: ADME; conditions: liver microsomes
[14] = AUC (0 to 24 hrs) in monkey at 0.32 mg/kg, po by cassette assay; assay type: ADME, organism-based, Macaca mulatta; set-up: time < 24 hr, dose 0.32 mg/kg, route oral; conditions: rhesus monkey, plasma
[15] = Bioavailability in monkey at 0.32 mg/kg, po by cassette assay; assay type: ADME, organism-based, Macaca mulatta; conditions: rhesus monkey, in vivo
[16] = Total clearance in monkey at 0.32 mg/kg, iv by cassette assay; assay type: ADME, organism-based, Macaca mulatta; set-up: dose 0.32 mg/kg, route intravenous; conditions: rhesus monkey, in vivo
[17] = Cmax in rat at 1.0 mg/kg, po by cassette assay; assay type: ADME, organism-based; set-up: dose 1 mg/kg, route oral; conditions: in vivo
[18] = AUC (0 to 24 hrs) in rat at 1.0 mg/kg, po by cassette assay; assay type: ADME, organism-based; set-up: time < 24 hr, dose 1 mg/kg, route oral; conditions: plasma
[19] = Bioavailability in rat at 1.0 mg/kg, po by cassette assay; assay type: ADME, organism-based; conditions: in vivo
[20] = Cmax in dog at 0.1 mg/kg, po; assay type: ADME, organism-based, Canis lupus familiaris; set-up: dose 0.1 mg/kg, route oral; conditions: in vivo
[21] = Total clearance in rat at 1.0 mg/kg, iv by cassette assay; assay type: ADME, organism-based; set-up: dose 1 mg/kg, route intravenous; conditions: in vivo
[22] = Bioavailability in dog at 0.1 mg/kg, po; assay type: ADME, organism-based, Canis lupus familiaris; conditions: in vivo
[23] = Terminal half life in dog at 0.1 mg/kg, iv; assay type: ADME, organism-based, Canis lupus familiaris; set-up: dose 0.1 mg/kg, route intravenous; conditions: in vivo, read-out: beta t1/2 (converted)
[24] = Total clearance in dog at 0.1 mg/kg, iv; assay type: ADME, organism-based, Canis lupus familiaris; set-up: dose 0.1 mg/kg, route intravenous; conditions: in vivo
[25] = target: Beta-3 adrenergic receptor (Canis lupus familiaris, UniProt O02662); assay: Agonist activity at dog recombinant beta3 adrenergic receptor expressed in CHO cells assessed as cAMP accumulation by enzyme immuno assay; assay type: functional, cell-based
[26] = Protein binding in Beagle dog serum; assay type: ADME, cell-free, Canis lupus familiaris; conditions: read-out: PPB (converted)
[27] = AUC (0 to 24 hrs) in dog at 0.1 mg/kg, po; assay type: ADME, organism-based, Canis lupus familiaris; set-up: time < 24 hr, dose 0.1 mg/kg, route oral; conditions: plasma
Canis familiaris = organism: Canis familiaris; assay: cells; conditions: Canis lupus familiaris, 3 h
Description: Inhibition of carbachol-induced increase in intravesical pressure in intraduodenally dosed Beagle dog OAB model for 180 mins

Sequence of Beta-1 adrenergic receptor (P08588 whole entry): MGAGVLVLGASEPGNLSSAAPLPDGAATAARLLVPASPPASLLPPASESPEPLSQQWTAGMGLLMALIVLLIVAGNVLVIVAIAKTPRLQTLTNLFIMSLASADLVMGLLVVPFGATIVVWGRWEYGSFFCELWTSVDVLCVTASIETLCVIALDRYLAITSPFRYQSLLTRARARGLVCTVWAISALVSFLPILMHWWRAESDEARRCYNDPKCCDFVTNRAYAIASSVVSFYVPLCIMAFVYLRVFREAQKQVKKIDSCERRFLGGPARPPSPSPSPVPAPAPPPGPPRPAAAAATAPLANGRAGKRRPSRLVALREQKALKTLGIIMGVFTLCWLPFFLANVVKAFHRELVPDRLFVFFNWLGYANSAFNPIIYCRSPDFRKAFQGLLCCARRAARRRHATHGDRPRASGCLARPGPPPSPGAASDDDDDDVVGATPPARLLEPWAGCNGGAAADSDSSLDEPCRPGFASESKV
Sequence of Beta-2 adrenergic receptor (P07550 whole entry): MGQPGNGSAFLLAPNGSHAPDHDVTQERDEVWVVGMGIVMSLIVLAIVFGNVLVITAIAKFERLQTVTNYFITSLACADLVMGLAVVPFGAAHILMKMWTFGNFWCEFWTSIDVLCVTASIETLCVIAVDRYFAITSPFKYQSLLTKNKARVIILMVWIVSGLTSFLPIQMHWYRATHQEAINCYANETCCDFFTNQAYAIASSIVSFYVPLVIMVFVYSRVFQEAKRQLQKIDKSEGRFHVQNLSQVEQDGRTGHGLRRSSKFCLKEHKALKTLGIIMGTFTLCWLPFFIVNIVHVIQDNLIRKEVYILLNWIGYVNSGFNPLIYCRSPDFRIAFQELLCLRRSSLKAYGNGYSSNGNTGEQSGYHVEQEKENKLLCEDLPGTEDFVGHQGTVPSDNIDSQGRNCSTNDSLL
Sequence of Beta-3 adrenergic receptor (Homo sapiens, UniProt P13945) (P13945 whole entry): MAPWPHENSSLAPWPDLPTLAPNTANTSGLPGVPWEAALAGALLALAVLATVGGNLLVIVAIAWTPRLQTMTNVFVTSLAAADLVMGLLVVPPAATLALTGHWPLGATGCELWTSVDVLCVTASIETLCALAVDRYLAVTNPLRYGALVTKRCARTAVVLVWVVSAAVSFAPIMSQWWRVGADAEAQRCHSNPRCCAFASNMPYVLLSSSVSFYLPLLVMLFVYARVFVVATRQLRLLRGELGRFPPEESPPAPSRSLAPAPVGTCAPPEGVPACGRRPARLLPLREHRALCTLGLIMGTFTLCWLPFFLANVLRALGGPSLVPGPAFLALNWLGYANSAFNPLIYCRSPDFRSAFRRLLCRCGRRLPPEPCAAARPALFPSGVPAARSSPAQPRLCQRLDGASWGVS
Sequence of Beta-3 adrenergic receptor (Canis lupus familiaris, UniProt O02662) (O02662 whole entry): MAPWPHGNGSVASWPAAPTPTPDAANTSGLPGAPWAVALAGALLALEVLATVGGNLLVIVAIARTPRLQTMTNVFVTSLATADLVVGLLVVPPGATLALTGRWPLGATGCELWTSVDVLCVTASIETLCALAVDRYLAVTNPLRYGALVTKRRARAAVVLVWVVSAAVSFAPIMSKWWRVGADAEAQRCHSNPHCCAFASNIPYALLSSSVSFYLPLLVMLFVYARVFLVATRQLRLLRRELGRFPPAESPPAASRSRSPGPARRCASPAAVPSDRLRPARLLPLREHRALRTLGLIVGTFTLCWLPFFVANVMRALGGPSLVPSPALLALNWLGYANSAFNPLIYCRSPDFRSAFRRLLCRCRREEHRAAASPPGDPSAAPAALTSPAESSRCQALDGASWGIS

Q: With `CC(C)Oc1cc(-c2ccc(C[C@@H](C)NC[C@H](O)c3ccccc3)cc2)ccc1C(=O)O` as the compound, how does the EC50 [1] read?
A: 86 nM

Q: What about the EC50 [2] of the same compound?
A: 0.091 nM

Q: What about the EC50 [3] of the same compound?
A: > 10000 nM

Q: And the AUC(0-t) at 2 h [4]?
A: 106 ng·h/mL

Q: What about the half-life [5] of the same compound?
A: 15.5 h

Q: What about the Vd [6] of the same compound?
A: 5.4 L/kg

Q: And the AUC(0-t) at 24 h [7]?
A: 260 ng·h/mL

Q: What about the clearance [8] of the same compound?
A: 6.5 mL/min/kg

Q: And the bioavailability [9]?
A: 41%

Q: And the CLint scaled [10]?
A: < 0.1 mL/min/kg

Q: And the CLint scaled [11]?
A: < 0.1 mL/min/kg

Q: What about the CLint scaled [12] of the same compound?
A: < 1 mL/min/kg

Q: What about the CLint scaled [13] of the same compound?
A: < 0.1 mL/min/kg

Q: And the AUC(0-t) at 24 h [14]?
A: 1300 ng·h/mL

Q: What about the bioavailability [15] of the same compound?
A: 52.8%

Q: And the clearance [16]?
A: 1.8 mL/min/kg

Q: And the Cmax [17]?
A: 116 ng/mL

Q: And the AUC(0-t) at 24 h [18]?
A: 1640 ng·h/mL

Q: And the bioavailability [19]?
A: 69.7%

Q: What about the Cmax [20] of the same compound?
A: 8.5 ng/mL

Q: What about the clearance [21] of the same compound?
A: 7.2 mL/min/kg

Q: And the bioavailability [22]?
A: 79.6%

Q: What about the half-life [23] of the same compound?
A: 14.3 h

Q: What about the clearance [24] of the same compound?
A: 7.83 mL/min/kg

Q: What about the EC50 [25] of the same compound?
A: 0.19 nM

Q: What about the fraction unbound [26] of the same compound?
A: 0.14

Q: What about the AUC(0-t) at 24 h [27] of the same compound?
A: 162 ng·h/mL

Q: And the EC50 (Canis familiaris)?
A: 2.5 nM

Q: And the ED50 (Canis familiaris)?
A: 3.5 µg/kg
